The results in this text go back to PubChem BioAssay AID540314 (Broad Institute, 2011).

For orientation: AC50 means the concentration giving half of the maximal activity seen.

Molecules are shown by their SMILES. Records with an inconclusive call do not appear. Calls of active or inactive are those of the source.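 The calls were made as follows: active = compounds whose fitted half-maximal potency is at most ten times their top valid tested dose, reducing viability; inconclusive = flat curve with 30 to 70% viability loss, or poor fit; inactive = the rest.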

Test [1] relates to BJeHLT fibroblasts viability, Alamar Blue fluorescence, 48 h. In words: viability loss in BJeHLT fibroblasts, dose response, counter-screen for Ras selective lethality project, cell-based, plate reader, dry powder, set 4 (AID 540314). (In general: A counterscreen serves to expose hits that act by an unwanted route or on another target.)
Test in test [2]: as above
The settings on record: BJeHLT fibroblasts viability, Alamar Blue fluorescence, 48 h; at 48 µM (top of the series). (In general: Resazurin is reduced to fluorescent resorufin, in cell work by metabolically active cells.)

For the compound `O=C(c1ccc([N+](=O)[O-])o1)N1CCN(C(c2ccc(F)cc2)c2ccc(F)cc2)CC1`, in test [1], the AC50 is 14.8 µM.
On the same count and under the same terms, then `O=C(NCCNC(c1ccccc1)c1ccccc1)c1ccc([N+](=O)[O-])o1`, with 4.66 µM.
As for `Cc1onc(C(=O)N2CCN(Cc3ccccc3)CC2)c1[N+](=O)[O-]`, in test [2], the activity change, negative = less viable was 8.05% (inactive).
In the case of `COc1ccc(C(c2ccc(OC)cc2)N2CCN(C(=O)c3ccc([N+](=O)[O-])o3)CC2)cc1`, in test [1], the AC50 was 6.87 µM.
Same read-out and setting: then `Cc1onc(C(=O)N2CCN(C(c3ccc(F)cc3)c3ccc(F)cc3)CC2)c1[N+](=O)[O-]`, with 2.12 µM.
On the same count and under the same terms, then `Cc1onc(C(=O)N2CCN(C(c3ccc(Cl)cc3)c3ccc(Cl)cc3)CC2)c1[N+](=O)[O-]`, with 0.844 µM; and `Cc1onc(C(=O)N2CCN(C(c3ccccc3)c3ccccc3)CC2)c1[N+](=O)[O-]`, with 7.25 µM.
Still for that read-out and setting: then `CCOc1ccccc1-n1c(C(C)N2CCN(C(=O)COc3ccc(Cl)cc3)CC2)nc2ccccc2c1=O` (stereo not given), with 4.19 µM.
For `COC(=O)c1ccc([C@@H]2c3[nH]c4ccccc4c3C[C@@H](C(=O)OC)N2C(=O)CCl)cc1`, the AC50 in test [1] was 1.57 µM.
On the same count and under the same terms, then `Cc1onc(C(=O)N2CCN(C(c3ccccc3)c3ccc(Cl)cc3)CC2)c1[N+](=O)[O-]` (stereo not given), with 2.04 µM.
